According to US7521570B2, “Medicinal compositions containing 6-hydroxybenzbromarone or salts thereof” (Torli Pharmaceutical Co., Ltd., priority 2004, dated 2009):
Where two headings read alike, the source gives them in different places.

Experiments:
[1] = Pharmacokinetic test of single dose in rats; format: in vivo; settings: single dose of 100 mg/kg; for Cmax / AUC(0-t): rat, in vivo, po; for AUC(0-t): read-out: AUC0-24hr
[2] = molecular target: T1, URAT1 (Homo sapiens, UniProt Q96S37); test: Inhibition of [14C] uric acid uptake by URAT1 in MDCK-URAT1 cells; format: cell-based; settings: for IC50: MDCK-URAT1 cells, 100 μM [14C] uric acid
T1 construct: expressed in transfected cells
T1 sequence (Q96S37 1-553): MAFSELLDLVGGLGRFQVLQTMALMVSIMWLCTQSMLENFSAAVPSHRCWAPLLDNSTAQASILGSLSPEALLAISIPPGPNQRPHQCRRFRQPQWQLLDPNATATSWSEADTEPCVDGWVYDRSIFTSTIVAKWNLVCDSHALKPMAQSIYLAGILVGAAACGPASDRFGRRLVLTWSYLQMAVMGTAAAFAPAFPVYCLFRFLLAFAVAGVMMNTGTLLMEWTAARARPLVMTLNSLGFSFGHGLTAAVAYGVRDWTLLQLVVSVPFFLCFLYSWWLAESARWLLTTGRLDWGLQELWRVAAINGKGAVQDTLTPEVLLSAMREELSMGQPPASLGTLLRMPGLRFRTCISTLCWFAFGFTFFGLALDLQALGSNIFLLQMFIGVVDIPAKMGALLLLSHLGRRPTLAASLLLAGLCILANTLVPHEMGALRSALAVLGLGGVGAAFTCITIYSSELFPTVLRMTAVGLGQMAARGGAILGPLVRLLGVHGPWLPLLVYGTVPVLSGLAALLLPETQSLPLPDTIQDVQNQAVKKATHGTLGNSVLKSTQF
Method: cDNA of URAT1 was introduced into MDCK cells and stably expressing cells (MDCK-URAT1) were created. […] Experiments are carried out each three times and level of IC50 was analyzed by profit.
cDNA of URAT1 which was integrated into mammal expression vector pcDNA3.1, or pcDNA3.1 was gene transfected to MDCK cells to create stably expressing cells (MDCK-URAT1) and mock cells.
This MDCK-URAT1 was cultured in the minimal essential medium containing 5% fetal bovine serum and 400 μg/mL geneticin, cells were placed in 24-well dish (as many as 10^5 cells per one well) and cultured for 2 days. After that, it was washed with Dulbecco's modified PBS and subjected to pre-incubation in the Dulbecco's modified PBS solution for 10 min.
After that, it was washed with Dulbecco's modified PBS solution three times and cells were collected by 0.1N NaOH. Scintillation cocktail was then added to count dpm of [^14C] uric acid being taken in cells by liquid scintillation counter. Values of IC50 were analyzed by profit.

[3] = molecular target: T2, human OAT3 (human organic anion transporter 3) (Homo sapiens, UniProt Q8TCC7); test: Inhibition of 3H-estrone sulfate uptake by OAT3 in S2 cells; format: cell-based; settings: for Ki: OAT3, 3H-estrone sulfate uptake
T2 construct: expressed in transfected cells; host or cells: S2 cells expressing OAT3
T2 sequence (Q8TCC7 1-542): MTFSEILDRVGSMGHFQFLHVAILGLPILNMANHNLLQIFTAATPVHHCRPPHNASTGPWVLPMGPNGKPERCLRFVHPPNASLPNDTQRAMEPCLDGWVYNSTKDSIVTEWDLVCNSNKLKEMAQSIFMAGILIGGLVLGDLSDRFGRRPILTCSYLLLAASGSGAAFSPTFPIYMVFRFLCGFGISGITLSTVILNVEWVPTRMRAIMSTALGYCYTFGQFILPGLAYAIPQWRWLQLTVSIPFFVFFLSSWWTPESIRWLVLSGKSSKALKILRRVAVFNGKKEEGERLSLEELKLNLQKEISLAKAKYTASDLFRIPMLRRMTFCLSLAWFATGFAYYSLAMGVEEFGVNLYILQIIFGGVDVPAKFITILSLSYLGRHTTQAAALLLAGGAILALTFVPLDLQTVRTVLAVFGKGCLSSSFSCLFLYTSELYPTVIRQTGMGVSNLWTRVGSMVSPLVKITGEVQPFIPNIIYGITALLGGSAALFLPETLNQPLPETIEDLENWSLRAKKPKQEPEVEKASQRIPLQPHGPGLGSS
Method: OAT3 is an organic anion transporter which is present at basal-lateral (vascular side) membrane of the proximal renal tubule and takes organic anion such as uric acid into cells, and estrone sulfate is known as the typical substrate of this.
The horizontal axis of FIG. 8 represents 1/S (L/mmol) and the vertical axis represents 1/V (mg protein/μM/min), black square (▪) denotes 6-hydroxybenzbromarone (0.3 μM) case and white square (□) denotes control.

[4] = molecular target: T3, human OAT4 (human organic anion transporter 4) (Homo sapiens, UniProt Q9NSA0); test: Inhibition of 3H-estrone sulfate uptake by OAT4 in S2 cells; format: cell-based; settings: S2 cells expressing OAT4
T3 sequence (Q9NSA0 1-550): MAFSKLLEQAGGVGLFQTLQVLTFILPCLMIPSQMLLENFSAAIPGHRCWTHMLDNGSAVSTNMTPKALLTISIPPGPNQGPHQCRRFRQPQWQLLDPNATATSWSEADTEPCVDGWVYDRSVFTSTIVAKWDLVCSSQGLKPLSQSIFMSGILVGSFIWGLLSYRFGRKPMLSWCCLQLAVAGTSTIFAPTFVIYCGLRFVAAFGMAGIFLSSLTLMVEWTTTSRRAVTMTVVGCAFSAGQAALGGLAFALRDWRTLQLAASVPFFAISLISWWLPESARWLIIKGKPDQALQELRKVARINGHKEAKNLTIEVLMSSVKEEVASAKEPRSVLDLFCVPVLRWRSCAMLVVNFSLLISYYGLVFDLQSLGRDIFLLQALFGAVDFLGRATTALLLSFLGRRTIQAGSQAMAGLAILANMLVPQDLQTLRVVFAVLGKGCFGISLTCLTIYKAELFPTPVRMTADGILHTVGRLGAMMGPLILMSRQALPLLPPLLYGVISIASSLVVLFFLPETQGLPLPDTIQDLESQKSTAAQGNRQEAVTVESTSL
Excerpt: OAT4 is an organic anion transporter which is present at luminal side membrane of the proximal renal tubule and takes organic anion such as uric acid into cells, and estrone sulfate is known as the typical substrate of this. […] Results are shown in FIG. 6 in the form of relative value while the amount of uptake of ^3H-estrone sulfate in a case where nothing is present (control) is considered to be 100%.

[5] = Clinical pharmacokinetic test, single dose of benzbromarone, plasma and urine by LC/MS/MS; format: in vivo, human; settings: for detection in the urine: till 72 hours; for concentration at 72 h: male, human, po, 100 mg as benzbromarone
Method: Next, clinical pharmacokinetic test was carried out for a case where single dose of benzbromarone was given to healthy male adult subjects.
Results of plasma concentration of 6-hydroxybenzbromarone are shown in FIG. 3 and results of urine concentration of the same are shown in FIG. 4, respectively. The vertical axis of FIG. 3 represents plasma level (ng/mL) and the horizontal axis represents time elapsed (hour). […] The vertical axis of FIG. 4 represents concentration in the urine (ng/mL) and the horizontal axis represents time elapsed (hour).

[6] = molecular target: T4, xanthine oxidase derived from bovine milk (Bos taurus, UniProt P80457); test: Xanthine oxidase inhibitory activity (absorbance 292 nm, xanthine substrate); format: biochemical; settings: for IC50: 100 μM xanthine, 37° C., pH 7.4, read-out: IC50 level, xanthine oxidase
T4 construct: xanthine oxidase derived from bovine milk; from tissue; host or cells: bovine milk
T4 sequence (P80457 whole entry): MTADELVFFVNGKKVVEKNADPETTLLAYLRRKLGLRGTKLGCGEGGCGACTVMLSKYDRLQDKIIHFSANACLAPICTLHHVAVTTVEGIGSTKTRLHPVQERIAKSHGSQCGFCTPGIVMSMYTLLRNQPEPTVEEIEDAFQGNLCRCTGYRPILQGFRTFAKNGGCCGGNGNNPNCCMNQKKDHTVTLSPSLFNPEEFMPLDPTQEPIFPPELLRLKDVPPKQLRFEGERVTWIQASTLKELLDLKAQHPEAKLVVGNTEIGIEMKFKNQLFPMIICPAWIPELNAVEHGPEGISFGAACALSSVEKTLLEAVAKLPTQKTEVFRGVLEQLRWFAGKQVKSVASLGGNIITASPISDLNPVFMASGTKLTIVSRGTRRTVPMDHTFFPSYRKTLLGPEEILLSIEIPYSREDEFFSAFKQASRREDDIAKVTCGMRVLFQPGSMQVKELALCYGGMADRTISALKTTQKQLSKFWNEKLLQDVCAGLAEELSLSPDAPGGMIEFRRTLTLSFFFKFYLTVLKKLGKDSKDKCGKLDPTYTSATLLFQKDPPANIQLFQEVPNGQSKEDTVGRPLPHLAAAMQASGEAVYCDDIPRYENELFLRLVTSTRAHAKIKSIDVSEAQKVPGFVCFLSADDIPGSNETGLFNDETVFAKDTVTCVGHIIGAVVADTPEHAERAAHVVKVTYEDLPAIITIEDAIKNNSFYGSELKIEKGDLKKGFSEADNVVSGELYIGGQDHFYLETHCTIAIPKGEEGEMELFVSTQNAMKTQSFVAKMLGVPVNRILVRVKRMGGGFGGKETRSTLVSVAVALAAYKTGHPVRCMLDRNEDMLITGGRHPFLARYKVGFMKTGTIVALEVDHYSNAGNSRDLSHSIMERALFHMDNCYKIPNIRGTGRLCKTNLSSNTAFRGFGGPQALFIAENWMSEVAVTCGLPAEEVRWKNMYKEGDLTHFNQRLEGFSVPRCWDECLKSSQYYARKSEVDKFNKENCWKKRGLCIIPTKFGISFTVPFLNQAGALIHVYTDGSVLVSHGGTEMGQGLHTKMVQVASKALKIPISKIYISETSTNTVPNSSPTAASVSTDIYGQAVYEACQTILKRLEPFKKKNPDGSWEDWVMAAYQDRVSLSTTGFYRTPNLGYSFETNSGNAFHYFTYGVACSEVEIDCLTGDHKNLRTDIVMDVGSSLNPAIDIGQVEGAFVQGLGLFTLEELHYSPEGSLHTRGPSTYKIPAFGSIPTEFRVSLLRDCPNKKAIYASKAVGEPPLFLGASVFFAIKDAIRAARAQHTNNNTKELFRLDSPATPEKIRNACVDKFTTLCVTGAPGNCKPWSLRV
Method: Subsequently, xanthine oxidase inhibitory activity of 6-hydroxybenzbromarone was investigated. Activity of xanthine oxidase derived from bovine milk was checked as follows: Using 100 μM of xanthine as the substrate, and using a system for measuring chronologically the absorbance (292 nm) of […] generated at 37° C. in 1/15 M phosphate buffer solution (pH 7.4) in which 0.1 M phosphate buffer solution was diluted by half volume of water, inhibitory activity of 6-hydroxybenzbromarone or of oxypurinol that is a metabolic product of allopurinol was measured to analyze IC50.
Activity of xanthine oxidase derived from bovine milk was analyzed as follows.

[7] = healthy male adults, single oral 100 mg benzbromarone

SMILES | Cmax [1] [ng/mL] | AUC(0-t) [1] [µg·h/mL] | absorption from the digestive tract into bloodstream [1] | IC50 ([2]; 37° C. 2 min, three experiments, read-out: level of IC50, uric acid uptake by URAT1, after three times experiments) [nM] | IC50 ([2]; single experiment shown in figure, read-out: level of IC50, uric acid uptake by URAT1 (FIG. 1 / FIG. 2)) [nM] | intensity of uric acid uptake inhibition relative to benzbromarone ([2]; fraction of that of benzbromarone) | inhibitory style at OAT3 ([3]; 3H-estrone sulfate uptake, 0.3 μM, FIG. 8) | Ki ([3]; FIG. 8, read-out: Ki-value (competitive inhibition)) [nM] | Ki ([3]; FIG. 8, read-out: Ki-value (noncompetitive inhibition)) [nM] | IC50 ([3]; S2 cells expressing OAT3, 3H-estrone sulfate (50 nmol/L)) [nM] | IC50 [4] [nM] | AUC in plasma relative to benzbromarone [5, 7] | detection in the urine [5, 7] | concentration at 72 h ([5]; plasma, read-out: plasma concentration 72 hours after administration) [ng/mL] | concentration at 72 h ([5]; urine, read-out: urine concentration 72 hours after administration) [ng/mL] | IC50 [6] [nM] | inhibitory activity of xanthine oxidase relative to oxypurinol ([6]; fraction of that of oxypurinol) | IC50 [3] [nM] | time after administration at which eliminated from plasma [5, 7] [h]
CCc1oc2cc(O)ccc2c1C(=O)c1cc(Br)c(O)c(Br)c1 [6-hydroxybenzbromarone, 2-ethyl-6-hydroxy-3-(3′,5′-dibromo-4′-hydroxy-benzoyl)-benzofuran] | 34600 | 291 | absorbed favorably | 200 ± 60 | 130 | approximately ⅙ | mixed type of competitive inhibition and noncompetitive inhibition | 1000 | 700 | 300 | 3200 | twice or higher level than that of benzbromarone | high level | ~110 | ~170 | 68000 | approximately ⅕ | – | –
CCc1oc2ccccc2c1C(=O)c1cc(Br)c(O)c(Br)c1 [benzbromarone] | 90200 | 887 | – | – | – | – | – | – | – | – | 5400 | – | detected little in the urine | – | – | – | – | 700 | 48
O=c1[nH]c(=O)c2c[nH]nc2[nH]1 [oxypurinol, reference compound] | – | – | – | – | – | – | – | – | – | – | – | – | – | – | – | 13000 | – | – | –
